In one experiment the test system is human memory Th17 cells. Conditions: 40 μM, 6 days. As for the experimental part: Mononuclear cells were collected from draining lymph nodes of wild-type or IL-23RGFP knock-in heterozygous mice 7 days after MOG(35-55)/CFA injection.
Blood samples were obtained from the New York Blood Center. Mononuclear cells were prepared from buffy coats from healthy adult donors or from cord blood, using FicollPAQUE gradients. CD4^+ T cells were magnetically selected (autoMACS, Miltenyi). Adult memory CD4^+ T cell subsets were further purified as CD3^+CD4^+CD25^− CD45RO^+CCR6^+CD161^+ by cell sorting on a FACSAria (BD). Naive CD4^+ T cells were isolated from cord blood as CD3^+CD4^+CD45RA^+HLA-DR^−CD25^−DAPI^−. Memory cells were activated with anti-CD3/CD28 coated beads (1 bead/cell) in T cell media (see above) supplemented with 100 U/mL IL-2 (Peprotech), 10 ng/mL IL-1b and 10 ng/mL IL-23 (eBioscience). Naive cells were activated with anti-CD3/CD28 beads and cultured with the same cytokines, and TGF-b (0, 0.1, 1, or, 10 ng/mL) (Peprotech), in XVIVO-20 (Lonza) media. […] Naive CD4^+ T cells, cultured in XVIVO-20 media supplemented 100 U/mL IL-2 (Peprotech), were transduced with RORad-IRES-GFP or RORγt-IRES-GFP on day 1 and analyzed on day 6. […]
Blood samples were obtained from the New York Blood Center. […] Naive CD4+ T cells, cultured in XVIVO-20 media supplemented with 100 U/mL IL-2 (Peprotech), were transduced with RORαd-IRES-GFP or RORγt-IRES-GFP on day 1 and analyzed on day 6. […]

Experiment [1] deals with human Th17 cell differentiation. The experiment is described as follows: Human Th17 cell differentiation from naive cord blood CD4+ T cells. It is filed as cell-based. The protocol: GFP expressing cells were gated for analysis. DMSO, Dig(dhd) (40 μM) or Dig(sal) (10 μM) was added 6-8 h after viral transduction. c, Flow cytometry of the production of IL-17a and IFN-γ by human naive cord blood T cells cultured for six days in the presence of IL-2, IL-23, and IL-1β, with various concentrations of TGF-β. DMSO, Dig(dhd), or Dig(sal) at indicated concentrations (μM) was added 16 h after cytokine addition.
Blood samples were obtained from the New York Blood Center. Mononuclear cells were prepared from buffy coats from healthy adult donors or from cord blood, using FicollPAQUE gradients. CD4^+ T cells were magnetically selected (autoMACS, Miltenyi). Adult memory CD4^+ T cell subsets were further purified as CD3^+CD4^+CD25^− CD45RO^+CCR6^+CD161^+ by cell sorting on a FACSAria (BD). Naive CD4^+ T cells were isolated from cord blood as CD3^+CD4^+CD45RA^+HLA-DR^−CD25^−DAPI^−. Memory cells were activated with anti-CD3/CD28 coated beads (1 bead/cell) in T cell media (see above) supplemented with 100 U/mL IL-2 (Peprotech), 10 ng/mL IL-1b and 10 ng/mL IL-23 (eBioscience). Naive cells were activated with anti-CD3/CD28 beads and cultured with the same cytokines, and TGF-b (0, 0.1, 1, or, 10 ng/mL) (Peprotech), in XVIVO-20 (Lonza) media. […] Naive CD4^+ T cells, cultured in XVIVO-20 media supplemented 100 U/mL IL-2 (Peprotech), were transduced with RORad-IRES-GFP or RORγt-IRES-GFP on day 1 and analyzed on day 6. GFP expressing cells were gated for analysis. DMSO or compounds were added 6-8 hours after the viral transduction.
Blood samples were obtained from the New York Blood Center. Mononuclear cells were prepared from buffy coats from healthy adult donors or from cord blood, using FicollPAQUE gradients. CD4^+ T cells were magnetically selected (autoMACS, Miltenyi). Adult memory CD4+ T cell subsets were further purified as CD3^+CD4^+CD25^−CD45RO^+CCR6^+CD161^+ by cell sorting on a FACSAria (BD). Naive CD4^+ T cells were isolated from cord blood as CD3^+CD4^+CD45RA^+HLA^−DR^−CD25^−DAPI^−. Memory cells were activated with anti-CD3/CD28 coated beads (1 bead/cell) in T cell media (see above) supplemented with 100 U/mL IL-2 (Peprotech), 10 ng/mL IL-1β and 10 ng/mL IL-23 (eBioscience). Naive cells were activated with anti-CD3/CD28 beads and cultured with the same cytokines, and TGF-β (0, 0.1, 1, or, 10 ng/mL) (Peprotech), in XVIVO-20 (Lonza) media. […] Naive CD4+ T cells, cultured in XVIVO-20 media supplemented with 100 U/mL IL-2 (Peprotech), were transduced with RORαd-IRES-GFP or RORγt-IRES-GFP on day 1 and analyzed on day 6. GFP expressing cells were gated for analysis. DMSO or compounds were added 6-8 hours after the viral transduction.

Experiment [2] deals with aryl hydrocarbon receptor (AHR). Kind of experiment: AHR ligand FICZ effect on RORα-dependent IL-17a expression. To be noted: FICZ added. The format is cell-based, mouse.
The target of a further experiment is T1, RORγt (Mus musculus, UniProt P51450).
T1 construct: expressed in transfected cells; host or cells: mouse naive CD4+ T cells, retroviral MIGr vector
It is filed as cell-based. The protocol: Naive CD25^− CD62L^+CD44^low/int cells were sorted from RORγt^fl/fl mice and transduced with control-IRES-GFP (WT) or CRE-IRES-GFP (KO) retrovirus. […] FACS-sorted naive T cells were transduced with retroviral vectors encoding murine RORα-IRES-GFP or RORγt-IRES-GFP on Day 1 (16 h after TCR stimulation) and GFP expressing cells were gated for analysis on Day 5. […] Lymphocytes were isolated on day 21 after disease induction. The cells were stimulated for 4 h with PMA/Ionomycin and stained for surface markers and intracellular cytokines.
T cells were purified from lymph nodes and spleens of six to eight weeks old B6 mice (Taconic), by magnetically depleting B220^+ cells (autoMACS, Miltenyi), and then sorting CD8^−DAPI^−CD19^−CD4^+CD25^−CD62L^+CD44^low/Int naive T cells on a FACSAria (BD). […] For T cell polarization, 200 μl cells were seeded at 0.4×10^5 cells per mL in 96-well plates pre-coated with anti-CD3ε (5 μg/mL) and anti-CD28 (10 μg/mL). Cells were cultured for 4-5 days in Th17 (TGF-β (0.3 ng/mL), IL-6 (20 ng/mL), and anti-IFN-γ and anti-IL-4 (2 ng/mL)), Th1 (IL-12 (10 ng/mL), IL-2 (10 U/mL) and anti-IL-4 (2 ng/mL)), or Th2 (IL-4 (10 ng/mL), and anti-P35 and anti-IFN-γ 2 ng/mL)) conditions. For ectopic expression ROR proteins, native CD4^+ T cells were infected with retroviral MIGr-control, MIGr-RORα or MIGr-RORγ 24 hrs after activation, and cultured without exogenous cytokines or only with IL-6. At day 1, compounds dissolved in DMSO were added. For cytokine analysis, cells were incubated for 5 hours with phorbol 12-myristate 13-acetate (50 ng/mL; Sigma), ionomycin (500 ng/mL; Sigma) and GolgiStop (BD). Intracellular cytokine staining was performed according to the manufacturer's protocol (Cytofix/Cytoperm buffer set from BD) with alexa647-conjugated anti-IL-17a (eBioscience), and PE-conjugated anti-IFN-γ or anti-IL-4 (eBioscience). An LSR II (BD Biosciences) and FlowJo software (Tree Star) were used for flow cytometry and analysis. Dead cells were excluded using the Live/Dead fixable aqua dead cell stain kit (Invitrogen).

For orientation: inhibition means the share of the control response that was lost under treatment.

T1 sequence (P51450 other isoform, or with tags, fused parts or gaps): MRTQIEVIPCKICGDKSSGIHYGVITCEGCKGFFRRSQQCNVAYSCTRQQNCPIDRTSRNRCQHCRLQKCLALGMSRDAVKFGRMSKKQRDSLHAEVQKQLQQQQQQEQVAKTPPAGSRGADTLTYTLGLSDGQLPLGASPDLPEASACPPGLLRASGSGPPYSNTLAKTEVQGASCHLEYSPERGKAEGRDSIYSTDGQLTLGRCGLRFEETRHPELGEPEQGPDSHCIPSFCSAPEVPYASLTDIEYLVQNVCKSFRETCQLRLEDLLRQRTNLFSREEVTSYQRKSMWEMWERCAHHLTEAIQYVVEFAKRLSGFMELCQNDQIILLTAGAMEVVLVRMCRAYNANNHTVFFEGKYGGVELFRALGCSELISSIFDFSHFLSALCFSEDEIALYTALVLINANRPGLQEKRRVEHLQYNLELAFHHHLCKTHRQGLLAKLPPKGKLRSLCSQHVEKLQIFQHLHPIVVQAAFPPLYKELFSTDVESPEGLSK

For the molecule `CC1O[C@@H](OC2C(C)O[C@H](OC3C(C)O[C@@H](O[C@H]4CC[C@@]5(C)[C@H](CC[C@@H]6[C@@H]5C[C@@H](O)[C@]5(C)[C@@H](C(CO)CCO)CC[C@]65O)C4)C[C@H]3O)C[C@H]2O)C[C@@H](O)C1O` (some centres unmarked) [Compound 13, 20,22-Dihydrodigoxin-21,23-diol], in the experiment with human memory Th17 cells, the IFN-γ-expressing cells entry is given as “little effect” and the “reduction of IL-17a-expressing cells” value is on record as 40-50%. Besides, in experiment [1], the “expression of CCR6” value is on record as “reduced”. In experiment [1] (FIG. 3c), the “IFN-γ expression in T cells” value is “reciprocal increases” and the Th17 cell differentiation result was “blocked”. Moreover, the inhibition at 40 µM in experiment [1] (Homo sapiens, CD4+ T, read-out: Th17 inhibition) is approximately 80%.
For `C[C@H]1O[C@@H](O[C@H]2[C@@H](O)C[C@H](O[C@H]3[C@@H](O)C[C@H](O[C@H]4CC[C@@]5(C)[C@H](CC[C@@H]6[C@@H]5C[C@@H](O)[C@]5(C)[C@@H](C7=CC(=O)OC7)CC[C@]65O)C4)O[C@@H]3C)O[C@@H]2C)C[C@H](O)[C@@H]1O` [Digoxin], the AHR activity result in experiment [2] is on record as “unaffected”. For the same molecule, the “RORγt- versus RORα-mediated induction of IL-17a” value at RORγt is given as “suppressed RORγt—but not RORα-mediated induction of IL-17a”.

Source of the values: patent US9505798B2, “Steroid compounds as RORyt modulators and uses thereof” (New York University, priority 2010, dated 2016).
